Laboratory results reported in PubChem BioAssay (NCI).
Several values for one entry are separate records, joined by “and”; a condition that tells them apart may be missing. Identical values can stand only once.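 Tested at 5 concentrations; 48 h exposure; 96-well plates; endpoints linearly interpolated, else capped at highest concentration. Here, GI50 denotes the concentration required for 50% inhibition of growth. TGI denotes the concentration required for complete inhibition of growth.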

Assays:
Assay in all cases: NCI tumour cell line growth inhibition, 48 h
MOLT-4 leukemia = tested on: MOLT-4 leukemia
MCF7 breast = tested on: MCF7 breast
DU-145 prostate = tested on: DU-145 prostate
SW-620 colon = tested on: SW-620 colon
HOP-92 NSCLC = tested on: HOP-92 NSCLC
OVCAR-3 ovarian = tested on: OVCAR-3 ovarian
SN12C renal = tested on: SN12C renal
PC-3 prostate = tested on: PC-3 prostate
HL-60(TB) leukemia = tested on: HL-60(TB) leukemia
M14 melanoma = tested on: M14 melanoma

Compound | GI50 (MOLT-4 leukemia) | TGI (MOLT-4 leukemia) | GI50 (MCF7 breast) | TGI (MCF7 breast) | GI50 (DU-145 prostate) | TGI (DU-145 prostate) | GI50 (SW-620 colon) | TGI (SW-620 colon) | GI50 (HOP-92 NSCLC) | TGI (HOP-92 NSCLC) | GI50 (OVCAR-3 ovarian) | TGI (OVCAR-3 ovarian) | GI50 (SN12C renal) | TGI (SN12C renal) | GI50 (PC-3 prostate) | TGI (PC-3 prostate) | GI50 (HL-60(TB) leukemia) | TGI (HL-60(TB) leukemia) | GI50 (M14 melanoma) | TGI (M14 melanoma)
Cc1cc(O)cc(C)c1/C=C/c1cncc(C(N)=O)c1 | 3.27 µM | > 25 µM | 1.2 µM | > 25 µM | 5.15 µM | > 25 µM | 1.4 µM | > 25 µM | 1.5 µM | > 14.7 µM | 0.885 µM | 3.93 µM | 2.92 µM | > 25 µM | 5.09 µM | > 25 µM | 2.29 µM | > 12.9 µM | 1.2 µM | 7.75 µM
COC(=O)C1=CO[C@@H](OC2OC(CO)C(O)C(O)C2O)[C@H]2[C@@H](C)[C@@H](O)[C@@H](O)[C@@H]12 (some centres not stated) | – | > 100 µM | – | > 100 µM | – | > 100 µM | – | > 100 µM | – | > 100 µM | – | > 100 µM | – | > 100 µM | – | > 100 µM | – | > 100 µM | – | > 100 µM
O=[N+]([O-])c1ccc(C2CC(c3ccccc3)=Nc3ccccc3S2)cc1 (configuration not stated) | 6.04 µM | > 100 µM | 1.81 µM | 6.72 µM | 5.15 µM | > 100 µM | 2.75 µM | 11.1 µM | 24.5 µM | > 100 µM | 11.8 µM | > 100 µM | > 100 µM | > 100 µM | 8.2 µM | > 100 µM | > 100 µM | > 100 µM | 51 µM | > 100 µM
O=C([O][Hg][CH2]C1OCCOC1[CH2][Hg][O]C(=O)c1ccccc1)c1ccccc1 (configuration not stated) | 2.13 µM | 5.37 µM | 1.97 µM | 24.4 µM | 16.1 µM | 29.6 µM | 1.54 µM | 3 µM | 37.6 µM | 59.4 µM | 2.16 µM | 3.8 µM | 13.2 µM | 27.9 µM | 6.52 µM | 14.6 µM | 2.67 µM | 7.41 µM | 5.2 µM | 9.52 µM
N=N/C(=C\c1c(O)[nH]c2ccccc12)c1ccccc1 | – | > 100 µM | – | > 100 µM | – | > 100 µM | – | > 100 µM | – | > 100 µM | – | 44.2 µM | – | > 94.7 µM | – | > 70.7 µM | – | 17.5 µM | – | > 65.9 µM
CC(C)(C)[Si](C)(C)OC1[C@@H](O[Si](C)(C)C(C)(C)C)[C@@H](CNC(=O)NC(=O)CF)O[C@H]1n1cnc2c(NC(=O)Nc3ccccc3)ncnc21 (some centres not stated) | 4.19 µM | 43.7 µM | 1.78 µM | 13.2 µM | 17.7 µM | > 50 µM | 15.5 µM | > 50 µM | 6.48 µM | 19.8 µM | 11.1 µM | 23.4 µM | 3 µM | 13.2 µM | 2.19 µM | > 50 µM | 17.4 µM | > 50 µM | 15.9 µM | > 50 µM
COC(=O)C1=COC(C)C2CN3CCc4c([nH]c5cc(OC)c(OC)cc45)C3CC12 (configuration not stated) | – | > 100 µM and 79.1 µM | > 100 µM and 36.4 µM | > 100 µM | – | > 100 µM | > 100 µM and 39.1 µM | > 100 µM | – | > 100 µM | – | > 100 µM | – | > 100 µM | – | > 100 µM | – | 66.6 µM and 65.9 µM | – | > 100 µM
CC1=CCCC2C1(C)CCC(C)C2(C)Cc1cc(O)ccc1O (configuration not stated) | – | 21 µM and 8.36 µM | 7.15 µM | 21.7 µM and 19.8 µM | – | 30.4 µM | 12.9 µM | 33.3 µM and 23.3 µM | – | 22.6 µM and 15.2 µM | 9.97 µM | 22.2 µM and 19.3 µM | 13.1 µM | 29.3 µM and 23.8 µM | – | 18.1 µM | 2.67 µM | 15.2 µM and 4.61 µM | – | 29.5 µM
